The values that follow are results of earlier work, collected in patent US20240158516A1, “METHODS FOR THE TREATMENT OF THYROID EYE DISEASE” (Horizon Therapeutics Ireland DAC, priority 2021, published 2024).

Read-outs that look alike come from different tables or passages of the source.

The conditions of series [1]: cited from earlier work.
In the next series the test system is patients with GO (TED). Particulars: vs. 0.15 mm in the placebo group; cited from earlier work.
Series [2] concerns patients with moderate-to-severe active TED. Particulars: cited from earlier work.
The next series addresses IGF-1 R (Homo sapiens, UniProt P08069). Particulars: cited from earlier work.
The subject of a further series is tumor. The settings on record: in vivo; cited from earlier work.
The target in series [3] is T1, IGF-IR (Homo sapiens, UniProt P08069). Particulars: cited from earlier work.
T1 sequence (P08069 31-1367): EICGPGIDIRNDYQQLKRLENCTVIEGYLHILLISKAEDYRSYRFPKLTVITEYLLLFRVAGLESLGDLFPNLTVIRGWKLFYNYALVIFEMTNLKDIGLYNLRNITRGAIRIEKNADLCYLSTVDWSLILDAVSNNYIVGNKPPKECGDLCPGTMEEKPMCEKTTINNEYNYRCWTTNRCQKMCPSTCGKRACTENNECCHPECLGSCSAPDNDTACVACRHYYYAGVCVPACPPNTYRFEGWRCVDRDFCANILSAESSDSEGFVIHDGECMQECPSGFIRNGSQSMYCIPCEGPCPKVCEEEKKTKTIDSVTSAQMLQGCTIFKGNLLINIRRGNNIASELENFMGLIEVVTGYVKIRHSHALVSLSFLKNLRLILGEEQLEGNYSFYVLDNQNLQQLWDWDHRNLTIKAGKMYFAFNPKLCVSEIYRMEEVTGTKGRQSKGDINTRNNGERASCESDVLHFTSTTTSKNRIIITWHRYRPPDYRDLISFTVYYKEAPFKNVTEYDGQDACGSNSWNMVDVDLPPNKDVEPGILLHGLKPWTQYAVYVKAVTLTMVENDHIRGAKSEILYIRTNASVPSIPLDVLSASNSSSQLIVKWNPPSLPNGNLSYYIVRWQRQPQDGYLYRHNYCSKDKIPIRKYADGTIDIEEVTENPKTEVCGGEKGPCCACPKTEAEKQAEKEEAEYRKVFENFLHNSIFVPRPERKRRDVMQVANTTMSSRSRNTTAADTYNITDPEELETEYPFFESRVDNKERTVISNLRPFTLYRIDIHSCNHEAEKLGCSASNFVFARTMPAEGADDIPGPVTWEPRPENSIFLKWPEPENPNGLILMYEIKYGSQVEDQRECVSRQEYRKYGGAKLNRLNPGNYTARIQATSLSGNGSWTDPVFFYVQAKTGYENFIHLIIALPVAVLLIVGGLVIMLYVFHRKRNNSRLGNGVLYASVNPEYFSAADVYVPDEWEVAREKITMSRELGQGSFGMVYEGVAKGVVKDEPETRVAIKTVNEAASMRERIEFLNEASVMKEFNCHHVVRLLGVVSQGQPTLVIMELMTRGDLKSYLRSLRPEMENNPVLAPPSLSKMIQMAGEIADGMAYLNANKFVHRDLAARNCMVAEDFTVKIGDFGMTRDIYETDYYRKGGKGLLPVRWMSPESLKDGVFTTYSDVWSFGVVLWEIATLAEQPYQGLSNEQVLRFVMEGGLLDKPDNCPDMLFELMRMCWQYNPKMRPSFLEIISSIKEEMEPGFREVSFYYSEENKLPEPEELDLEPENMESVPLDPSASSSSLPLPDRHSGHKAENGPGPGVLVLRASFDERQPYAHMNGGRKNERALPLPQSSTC
In series [4] the target is T1, IGF-IR. The settings on record: cited from earlier work. This is another data set of the same source.
The conditions of series [5]: cited from earlier work. The source holds these as a separate data set.

Sequence of IGF-1 R (P08069 31-1367): as above

As to “Cixutumumab: IGF-1R inhibitor antibody; HC SEQ ID NO:55, LC SEQ ID NO:56”, in series [1] (IV), the T1/2 result is “IV; 5 days”.
“teprotumumab: fully human IGF-IR-inhibitory monoclonal antibody approved for TED; VH SEQ ID NO:90, VL SEQ ID NO:91”: the “exophthalmos decreased by an average of” value in the series on patients with GO (TED) is on record as 2.46 mm. Besides, the T1/2 result in series [1] (IV) is “IV; 8 days”.
For the molecule “rituximab: a CD20+ B cell-depleting agent”, in series [2] (compared with 0.6 mm mean reduction under ivGCs), the “reduction in proptosis compared with the ivGC results” value was “not different”. The “effects of rituximab versus placebo” value in series [2] (first trial, 2015 monocenter RCT) is “negative”. Also, in series [2] (second trial, 2015 monocenter RCT), the “effects of rituximab versus ivGCs” value is reported as “positive”.
As for “Dalotuzumab: IGF-1R inhibitor antibody; HC SEQ ID NO:7, LC SEQ ID NO:8”, the T1/2 result in series [1] (in vivo, iv) is given as “IV;5 days”.
Take `COc1cc(N2CCC(N)CC2)ccc1Nc1ncc(Cl)c(-c2c[nH]c3ccccc23)n1` [AZD3463]: on IGF-1 R, the “inhibition of IGF-1 R” value is listed as “potent ALK/IGF-1 R inhibitor”.
As to `C[C@]1(O)C[C@@H](c2nc(-c3ccc4ccc(-c5ccccc5)nc4c3)c3c(N)nccn32)C1` [Linsitinib], in series [1] (oral), the T1/2 entry is “oral; 2-4 hrs”.
Regarding `N#CCc1cnc(-c2ccc3ccccc3n2)n1-c1ccnc(NC2CCCNC2)n1` (stereo not shown) [BI893923], in the series with tumor, the anti-tumor efficacy entry is reported as “anti-tumor efficacy” and the tolerability result is on record as “good”.
As to `Nc1ncnc2c1c(-c1ccc3[nH]c(Cc4ccccc4Cl)nc3c1)nn2[C@H]1CC[C@H](N2CCOCC2)CC1` [Example A-928605], the “inhibition of IGF-IR on the purified enzyme” value at IGF-IR [3] was “potent inhibitor”. Also, the “inhibition of intracellular IGF-IR phosphorylation” value at IGF-IR [4] is “potent inhibitor”.
`CN1CCC(Nc2cc(Cl)cc3c(S(=O)(=O)N4CCO[C@H](COc5ccccc5)C4)c(C(N)=O)[nH]c23)CC1` [PL-225B]: on IGF-1 R, the “inhibition of IGF-1 R” value was “selectively inhibits IGF-1 R”. Further, the T1/2 result in series [1] (oral) is recorded as “Oral; 21d”.
On to `COCCN1CCN(CCn2ccc(Nc3ncc4c(n3)[C@@H](C)Cc3nn(C)c(-c5ccccc5)c3-4)n2)CC1` [BI885578], for which the in vivo half-life entry in series [5] (as a result of rapid metabolic clearance) was “short”. In series [5] (in vivo), the intestinal absorption result is “rapid” and the metabolic clearance entry was “rapid”.

B1: Figitumumab: IGF-1R inhibitor antibody; HC SEQ ID NO:39, LC SEQ ID NO:40 (antibody)
heavy: EVQLLESGGGLVQPGGSLRLSCTASGFTFSSYAMNWVRQAPGKGLEWVSAISGSGGTTFYADSVKGRFTISRDNSRTTLYLQMNSLRAEDTAVYYCAKDLGWSDSYYYYYGMDVWGQGTTVTVSSASTKGPSVFPLAPCSRSTSESTAALGCLVKDYFPEPVTVSWNSGALTSGVHTFPAVLQSSGLYSLSSVVTVPSSNFGTQTYTCNVDHKPSNTKVDKTVERKCCVECPPCPAPPVAGPSVFLFPPKPKDTLMISRTPEVTCVVVDVSHEDPEVQFNWYVDGVEVHNAKTKPREEQFNSTFRVVSVLTVVHQDWLNGKEYKCKVSNKGLPAPIEKTISKTKGQPREPQVYTLPPSREEMTKNQVSLTCLVKGFYPSDIAVEWESNGQPENNYKTTPPMLDSDGSFFLYSKLTVDKSRWQQGNVFSCSVMHEALHNHYTQKSLSLSPGK
light: DIQMTQFPSSLSASVGDRVTITCRASQGIRNDLGWYQQKPGKAPKRLIYAASRLHRGVPSRFSGSGSGTEFTLTISSLQPEDFATYYCLQHNSYPCSFGQGTKLEIKRTVAAPSVFIFPPSDEQLKSGTASVVCLLNNFYPREAKVQWKVDNALQSGNSQESVTEQDSKDSTYSLSSTLTLSKADYEKHKVYACEVTHQGLSSPVTKSFNRGEC
modifications: Figitumumab Heavy Chain (HC); Figitumumab Light Chain (LC)
Regarding B1, the T1/2 entry in series [1] (IV) was “IV; 20 days”.
